Test results taken from ChEMBL document CHEMBL1157712, “Hit to lead account of the discovery of bisbenzamide and related ureidobenzamide inhibitors of Rho kinase” (J Med Chem, 2010).
In brackets after ≈: the same amount, converted by molar mass.

Experiments:
[1] = biological target: T1, Rho-associated protein kinase 2 (Homo sapiens, UniProt O75116)
Description: (§1) Inhibition of human ROCK2 by homogenous luciferase assay

[2] = biological target: T1, Rho-associated protein kinase 2; remark: listed apart in the source
Description: as §1

[3] = biological target: T1, Rho-associated protein kinase 2; assay: Inhibition of human ROCK2 by IMAP assay
[4] = Solubility at pH 7.4; type: physicochemical; settings: buffer
[5] = biological target: T2, Cytochrome P450 3A4 (Homo sapiens, UniProt P08684); assay: Inhibition of human CYP3A4 using BQ substrate by fluorescence assay; type: ADME
[6] = biological target: T3, Cytochrome P450 1A2 (Homo sapiens, UniProt P05177); assay: Inhibition of human CYP1A2 by fluorescence assay; type: ADME
T3 sequence (P05177 whole entry): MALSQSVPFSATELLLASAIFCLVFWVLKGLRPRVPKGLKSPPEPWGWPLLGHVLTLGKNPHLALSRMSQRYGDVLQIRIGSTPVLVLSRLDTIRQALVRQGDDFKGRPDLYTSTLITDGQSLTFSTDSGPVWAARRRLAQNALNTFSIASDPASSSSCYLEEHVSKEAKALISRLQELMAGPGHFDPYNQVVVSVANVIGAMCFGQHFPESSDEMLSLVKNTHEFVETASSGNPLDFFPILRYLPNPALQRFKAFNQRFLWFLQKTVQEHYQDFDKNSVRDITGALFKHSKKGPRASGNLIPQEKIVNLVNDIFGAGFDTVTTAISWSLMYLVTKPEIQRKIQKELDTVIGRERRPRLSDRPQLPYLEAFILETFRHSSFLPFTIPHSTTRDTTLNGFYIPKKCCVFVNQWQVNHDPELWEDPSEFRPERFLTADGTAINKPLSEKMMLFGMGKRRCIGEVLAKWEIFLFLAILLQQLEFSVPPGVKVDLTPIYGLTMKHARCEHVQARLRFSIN

[7] = Permeability from apical to basolateral side in human Caco-2 cells; type: ADME, cell-based; settings: Caco-2, read-out: permeability
[8] = biological target: T2, Cytochrome P450 3A4; assay: Inhibition of human CYP3A4 using BFC substrate by fluorescence assay; type: ADME
[9] = Metabolic stability in human liver microsomes assessed as half life; type: ADME, Microsome
[10] = Permeability from basolateral to apical side in human Caco-2 cells; type: ADME, cell-based; settings: read-out: permeability
[11] = biological target: Cytochrome P450 2C19 (Homo sapiens, UniProt P33261); assay: Inhibition of human CYP2C19 by fluorescence assay; type: ADME
[12] = biological target: Cytochrome P450 2D6 (Homo sapiens, UniProt P10635); assay: Inhibition of human CYP2D6 by fluorescence assay; type: ADME
[13] = biological target: Serine/threonine-protein kinase N2 (Homo sapiens, UniProt Q16513)
[14] = biological target: Cytochrome P450 2C9 (Homo sapiens, UniProt P11712); assay: Inhibition of human CYP2C9 by fluorescence assay; type: ADME
[15] = biological target: Serine/threonine-protein kinase MRCK beta (Homo sapiens) (UniProt Q9Y5S2); assay: Inhibition of CDC42BPB
[16] = biological target: T4, Protein kinase C epsilon type (Homo sapiens, UniProt Q02156); assay: Inhibition of PKCepsilon
T4 sequence (Q02156 whole entry): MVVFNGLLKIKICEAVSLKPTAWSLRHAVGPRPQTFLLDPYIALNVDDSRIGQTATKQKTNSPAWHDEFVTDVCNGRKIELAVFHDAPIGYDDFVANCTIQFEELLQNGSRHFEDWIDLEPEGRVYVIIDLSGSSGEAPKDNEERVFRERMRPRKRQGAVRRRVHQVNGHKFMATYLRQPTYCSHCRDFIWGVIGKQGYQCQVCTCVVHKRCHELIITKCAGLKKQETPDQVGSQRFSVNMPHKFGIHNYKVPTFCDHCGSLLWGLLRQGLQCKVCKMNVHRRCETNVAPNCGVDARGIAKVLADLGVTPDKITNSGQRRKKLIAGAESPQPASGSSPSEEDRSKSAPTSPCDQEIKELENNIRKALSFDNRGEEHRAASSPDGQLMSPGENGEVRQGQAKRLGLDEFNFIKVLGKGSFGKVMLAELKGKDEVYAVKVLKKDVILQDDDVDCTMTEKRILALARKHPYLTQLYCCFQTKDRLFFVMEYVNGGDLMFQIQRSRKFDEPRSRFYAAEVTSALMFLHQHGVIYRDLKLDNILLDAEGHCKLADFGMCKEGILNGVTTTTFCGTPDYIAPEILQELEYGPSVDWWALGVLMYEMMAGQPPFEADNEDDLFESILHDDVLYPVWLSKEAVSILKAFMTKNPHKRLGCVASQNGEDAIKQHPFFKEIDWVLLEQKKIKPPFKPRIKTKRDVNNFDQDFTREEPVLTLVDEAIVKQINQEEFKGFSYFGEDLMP

[17] = Membrane permeability by PAMPA assay; type: ADME; settings: read-out: permeability
[18] = species on record: Rattus norvegicus; assay: Induction of relaxation activity of phenylephrine-induced Sprague-Dawley rat aortic ring contraction; type: functional; settings: Aorta

T1 sequence (O75116 whole entry): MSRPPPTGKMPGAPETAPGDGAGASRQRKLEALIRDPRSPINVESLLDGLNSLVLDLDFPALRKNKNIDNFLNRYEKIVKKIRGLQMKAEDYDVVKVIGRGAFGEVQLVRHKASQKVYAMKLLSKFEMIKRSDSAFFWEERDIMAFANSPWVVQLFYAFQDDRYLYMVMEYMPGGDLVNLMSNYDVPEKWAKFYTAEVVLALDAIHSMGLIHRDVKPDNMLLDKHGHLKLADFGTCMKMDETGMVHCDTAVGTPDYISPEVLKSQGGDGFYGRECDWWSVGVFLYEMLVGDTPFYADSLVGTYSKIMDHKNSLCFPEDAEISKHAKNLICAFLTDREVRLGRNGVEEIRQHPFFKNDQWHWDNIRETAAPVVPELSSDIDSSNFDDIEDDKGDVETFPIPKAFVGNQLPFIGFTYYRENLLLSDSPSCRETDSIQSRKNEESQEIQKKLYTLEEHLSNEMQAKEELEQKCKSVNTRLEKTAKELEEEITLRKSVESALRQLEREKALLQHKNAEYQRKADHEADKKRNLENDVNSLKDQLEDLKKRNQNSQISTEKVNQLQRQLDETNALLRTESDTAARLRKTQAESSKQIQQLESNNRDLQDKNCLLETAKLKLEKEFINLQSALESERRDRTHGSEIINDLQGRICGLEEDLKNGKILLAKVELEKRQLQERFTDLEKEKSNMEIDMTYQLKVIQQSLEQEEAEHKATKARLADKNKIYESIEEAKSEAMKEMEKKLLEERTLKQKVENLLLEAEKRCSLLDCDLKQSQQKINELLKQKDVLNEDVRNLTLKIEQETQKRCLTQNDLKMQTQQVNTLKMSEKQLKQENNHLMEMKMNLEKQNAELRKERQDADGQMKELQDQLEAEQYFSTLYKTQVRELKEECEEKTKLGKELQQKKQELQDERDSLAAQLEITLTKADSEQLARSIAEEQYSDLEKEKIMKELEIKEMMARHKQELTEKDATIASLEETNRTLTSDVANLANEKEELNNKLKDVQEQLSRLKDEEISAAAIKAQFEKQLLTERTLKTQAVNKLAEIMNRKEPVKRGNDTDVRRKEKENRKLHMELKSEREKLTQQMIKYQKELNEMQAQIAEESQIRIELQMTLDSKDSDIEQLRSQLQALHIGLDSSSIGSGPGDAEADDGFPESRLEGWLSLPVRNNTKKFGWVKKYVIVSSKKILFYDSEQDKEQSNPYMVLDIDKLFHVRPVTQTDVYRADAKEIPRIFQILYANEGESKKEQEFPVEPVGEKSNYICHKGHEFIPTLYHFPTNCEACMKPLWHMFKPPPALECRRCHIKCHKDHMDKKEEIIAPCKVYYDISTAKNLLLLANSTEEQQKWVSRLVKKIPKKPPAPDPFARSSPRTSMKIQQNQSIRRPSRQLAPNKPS
T2 sequence (P08684 whole entry): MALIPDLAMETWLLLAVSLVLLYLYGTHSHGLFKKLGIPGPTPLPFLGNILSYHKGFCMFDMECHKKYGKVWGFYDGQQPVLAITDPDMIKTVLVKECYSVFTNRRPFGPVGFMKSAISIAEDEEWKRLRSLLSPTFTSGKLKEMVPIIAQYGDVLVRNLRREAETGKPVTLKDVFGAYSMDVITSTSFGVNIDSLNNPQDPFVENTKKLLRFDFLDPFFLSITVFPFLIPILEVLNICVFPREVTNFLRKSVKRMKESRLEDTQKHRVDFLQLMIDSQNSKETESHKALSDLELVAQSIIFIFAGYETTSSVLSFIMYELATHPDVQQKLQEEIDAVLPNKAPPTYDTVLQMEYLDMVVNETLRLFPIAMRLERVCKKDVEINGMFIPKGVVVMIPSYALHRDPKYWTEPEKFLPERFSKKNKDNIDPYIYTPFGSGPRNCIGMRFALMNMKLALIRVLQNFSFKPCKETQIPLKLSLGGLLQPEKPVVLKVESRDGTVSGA
Chain of Cytochrome P450 2C19 (P33261 whole entry): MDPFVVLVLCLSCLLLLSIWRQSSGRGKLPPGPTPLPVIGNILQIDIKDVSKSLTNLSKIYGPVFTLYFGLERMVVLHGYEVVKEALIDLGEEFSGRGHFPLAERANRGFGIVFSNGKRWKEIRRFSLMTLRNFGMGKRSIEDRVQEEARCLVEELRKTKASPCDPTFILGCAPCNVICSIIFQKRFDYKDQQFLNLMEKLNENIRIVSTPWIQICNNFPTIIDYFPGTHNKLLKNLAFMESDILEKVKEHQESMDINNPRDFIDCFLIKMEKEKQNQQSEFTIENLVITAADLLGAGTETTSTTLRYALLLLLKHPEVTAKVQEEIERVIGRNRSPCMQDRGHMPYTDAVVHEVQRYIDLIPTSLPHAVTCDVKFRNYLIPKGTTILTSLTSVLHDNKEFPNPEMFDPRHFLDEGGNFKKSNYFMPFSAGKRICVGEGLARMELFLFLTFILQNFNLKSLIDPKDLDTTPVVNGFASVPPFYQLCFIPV
Chain of Cytochrome P450 2D6 (P10635 whole entry): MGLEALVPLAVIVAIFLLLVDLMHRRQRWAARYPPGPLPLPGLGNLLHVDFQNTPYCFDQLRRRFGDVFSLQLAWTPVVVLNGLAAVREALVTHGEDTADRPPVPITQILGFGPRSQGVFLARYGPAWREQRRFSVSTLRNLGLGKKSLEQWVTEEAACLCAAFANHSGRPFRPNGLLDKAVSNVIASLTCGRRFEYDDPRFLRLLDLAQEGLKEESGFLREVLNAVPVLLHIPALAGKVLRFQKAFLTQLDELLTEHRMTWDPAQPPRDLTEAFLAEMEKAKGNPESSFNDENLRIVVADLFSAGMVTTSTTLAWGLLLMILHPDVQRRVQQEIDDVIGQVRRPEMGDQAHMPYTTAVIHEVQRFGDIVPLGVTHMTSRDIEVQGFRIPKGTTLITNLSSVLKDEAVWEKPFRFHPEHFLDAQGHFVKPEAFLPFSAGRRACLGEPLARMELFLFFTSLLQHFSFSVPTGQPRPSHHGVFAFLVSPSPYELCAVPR
Chain of Serine/threonine-protein kinase N2 (Q16513 whole entry): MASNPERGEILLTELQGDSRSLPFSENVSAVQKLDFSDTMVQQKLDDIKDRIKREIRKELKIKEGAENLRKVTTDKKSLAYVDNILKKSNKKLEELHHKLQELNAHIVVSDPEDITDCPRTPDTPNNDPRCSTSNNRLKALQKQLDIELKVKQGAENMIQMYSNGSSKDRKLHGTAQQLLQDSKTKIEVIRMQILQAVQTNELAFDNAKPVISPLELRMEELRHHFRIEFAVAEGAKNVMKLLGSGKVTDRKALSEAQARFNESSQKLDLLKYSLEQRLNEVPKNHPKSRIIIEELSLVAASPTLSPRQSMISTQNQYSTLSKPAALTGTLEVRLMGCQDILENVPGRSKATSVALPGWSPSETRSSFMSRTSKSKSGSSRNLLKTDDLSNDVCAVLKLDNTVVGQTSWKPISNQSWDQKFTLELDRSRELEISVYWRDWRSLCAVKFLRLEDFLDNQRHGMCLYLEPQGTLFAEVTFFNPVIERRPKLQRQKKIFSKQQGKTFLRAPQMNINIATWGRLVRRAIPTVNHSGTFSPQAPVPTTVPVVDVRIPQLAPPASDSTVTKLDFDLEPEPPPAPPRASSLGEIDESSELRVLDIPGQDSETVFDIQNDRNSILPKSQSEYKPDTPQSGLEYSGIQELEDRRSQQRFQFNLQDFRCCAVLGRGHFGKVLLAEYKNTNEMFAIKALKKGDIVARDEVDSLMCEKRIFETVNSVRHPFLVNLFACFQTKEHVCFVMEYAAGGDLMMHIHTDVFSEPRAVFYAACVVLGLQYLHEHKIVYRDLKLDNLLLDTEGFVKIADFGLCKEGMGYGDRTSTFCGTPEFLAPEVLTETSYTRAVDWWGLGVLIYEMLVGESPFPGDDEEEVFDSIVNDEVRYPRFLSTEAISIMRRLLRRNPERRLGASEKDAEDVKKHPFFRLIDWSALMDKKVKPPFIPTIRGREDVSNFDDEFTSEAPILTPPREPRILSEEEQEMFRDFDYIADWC
Chain of Cytochrome P450 2C9 (P11712 whole entry): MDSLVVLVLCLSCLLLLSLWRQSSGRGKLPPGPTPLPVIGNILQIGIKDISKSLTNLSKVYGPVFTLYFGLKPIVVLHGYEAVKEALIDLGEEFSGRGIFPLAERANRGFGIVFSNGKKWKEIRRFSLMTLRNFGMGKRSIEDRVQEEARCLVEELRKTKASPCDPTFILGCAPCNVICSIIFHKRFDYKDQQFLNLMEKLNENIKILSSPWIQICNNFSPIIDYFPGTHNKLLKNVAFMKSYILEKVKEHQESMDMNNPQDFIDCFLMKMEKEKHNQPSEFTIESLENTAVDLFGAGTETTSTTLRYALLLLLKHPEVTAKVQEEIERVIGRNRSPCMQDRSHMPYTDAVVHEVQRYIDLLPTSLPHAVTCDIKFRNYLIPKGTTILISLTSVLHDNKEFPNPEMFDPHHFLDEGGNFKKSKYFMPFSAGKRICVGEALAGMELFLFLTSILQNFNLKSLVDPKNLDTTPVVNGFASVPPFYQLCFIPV

SMILES	IC50 [1] [µM]	IC50 [2] [µM]	IC50 [3] [µM]	also measured
N#Cc1ccc(NC(=O)NCc2cccc(NC(=O)CCC3CCCNC3)c2)cc1 (configuration not stated)	110	–	–	–
N#Cc1cccc(NC(=O)NCc2cccc(C(=O)NCCc3ccncc3)c2)c1	–	5.5	–	–
CN(C)Cc1ccc(NC(=O)c2cccc(CNC(=O)Nc3ccc(C#N)c(Cl)c3)c2)cc1	10	–	0.045	–
COc1ccc(NC(=O)NCc2cccc(C(=O)NCCC3CCCNC3)c2)cc1OC (configuration not stated)	1600	–	–	–
COc1ccc(C(=O)NCc2cccc(C(=O)NCCC3CCCNC3)c2)cc1OC (configuration not stated)	–	0.053	0.14	solubility [4]: 16 µg/mL (≈ 37.6 µM); IC50 [5]: > 30 µM; IC50 [6]: > 30 µM; Papp A→B [7]: 0.1 ×10⁻⁶ cm/s; IC50 [8]: > 30 µM; half-life [9]: 2.32 h; Papp B→A [10]: 0.8 ×10⁻⁶ cm/s; IC50 [11]: > 30 µM; IC50 [12]: > 30 µM; IC50 [13]: 4.4 µM; IC50 [14]: > 30 µM; IC50 [15]: > 5 µM; IC50 [16]: > 5 µM
CN(C)Cc1ccc(NC(=O)c2cccc(CNC(=O)c3ccc(OC(F)(F)F)c(Cl)c3)c2)cc1	670	–	1.3	–
COc1ccc(C(=O)NCc2cccc(C(=O)Nc3ccc4c(c3)CN(C)CC4)c2)cc1OC	–	0.046	–	solubility [4]: > 85 µg/mL; IC50 [5]: > 30 µM; IC50 [6]: > 30 µM; Papp A→B [7]: 0.3 ×10⁻⁶ cm/s; IC50 [8]: 1.7 µM; half-life [9]: 0.917 h; Papp B→A [10]: 27.1 ×10⁻⁶ cm/s; IC50 [11]: > 30 µM; IC50 [12]: > 30 µM; IC50 [13]: > 5 µM; Papp [17]: 16 ×10⁻⁶ cm/s; IC50 [14]: > 30 µM; IC50 [15]: > 5 µM; IC50 [16]: > 5 µM; IC50 [18]: 1.2 µM
CCCNC(=O)c1cccc(CNC(=O)c2ccc(OC)c(OC)c2)c1	–	5	–	–
COc1ccc(C(=O)NCc2cccc(C(=O)Nc3ccc4c(c3)CCNC4)c2)cc1OC	100	–	0.32	–
N#Cc1ccc(NC(=O)NCc2cccc(C(=O)Nc3ccc(CN)cc3)c2)cc1	70	–	0.21	–
COc1ccc(C(=O)NCc2cccc(C(=O)NCCC3CCCN(C)C3)c2)cc1OC (configuration not stated)	102	–	–	–
Cc1ccc(C(=O)NCc2cccc(C(=O)NCCc3ccncc3)c2)cc1C	–	> 7000	–	–
CN(C)Cc1ccc(NC(=O)c2cccc(CNC(=O)c3ccc(C#N)cc3)c2)cc1	–	–	> 6.5	–
CN(C)Cc1ccc(NC(=O)c2cccc(CNC(=O)Nc3ccc(C(N)=O)cc3)c2)cc1	8	–	0.014	–
COc1ccc(C(=O)NCc2cccc(C(=O)Nc3ccc(CN(C)C)cc3)c2)cc1	–	–	> 6.5	–
COc1ccc(CC(=O)Nc2cccc(C(=O)NCCC3CCCNC3)c2)cc1OC (configuration not stated)	3200	–	–	–
COc1ccc(S(=O)(=O)NCc2cccc(C(=O)NCCC3CCCNC3)c2)cc1OC (configuration not stated)	–	> 6000	–	–
CN(C)Cc1ccc(NC(=O)c2cccc(CNC(=O)c3ccc(O)c(O)c3)c2)cc1	–	> 6	> 6.4	–
COc1cccc(C(=O)NCc2cccc(C(=O)NCCc3ccncc3)c2)c1	–	> 7000	–	–
COc1ccc(C(=O)NCc2cccc(C(=O)Nc3ccc(CN(C)C)cc3)c2)cc1C(F)(F)F	160	–	0.35	–
COc1ccc(C(=O)NCc2cccc(C(=O)Nc3ccc4cnccc4c3)c2)cc1OC	685	–	–	–
